Measurements from PubChem BioAssay (NCI).
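Tested at 5 concentrations; 48 h exposure; 96-well plates; endpoints linearly interpolated, else capped at highest concentration. GI50 = concentration required for 50% inhibition of growth. At the TGI there is no net growth.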

Key:
Experiment in all cases: DTP human tumour cell line panel, 48 h
[1] = tested on: 786-0 renal
[2] = tested on: A498 renal
[3] = tested on: A549 NSCLC
[4] = tested on: ACHN renal
[5] = tested on: BT-549 breast
[6] = tested on: CAKI-1 renal
[7] = tested on: CCRF-CEM leukemia
[8] = tested on: COLO 205 colon
[9] = tested on: DU-145 prostate
[10] = tested on: EKVX NSCLC
[11] = tested on: HCC-2998 colon
[12] = tested on: HCT-116 colon
[13] = tested on: HCT-15 colon
[14] = tested on: HL-60(TB) leukemia
[15] = tested on: HOP-62 NSCLC
[16] = tested on: HS 578T breast
[17] = tested on: HT29 colon
[18] = tested on: IGROV1 ovarian
[19] = tested on: K-562 leukemia
[20] = tested on: KM12 colon
[21] = tested on: LOX IMVI melanoma
[22] = tested on: M14 melanoma
[23] = tested on: MALME-3M melanoma
[24] = tested on: MCF7 breast
[25] = tested on: MDA-MB-231 breast
[26] = tested on: MDA-MB-435
[27] = tested on: MOLT-4 leukemia
[28] = tested on: NCI-H226 lung
[29] = tested on: NCI-H23 lung
[30] = tested on: NCI-H460 lung
[31] = tested on: NCI-H522 lung
[32] = tested on: NCI/ADR-RES ovarian
[33] = tested on: OVCAR-3 ovarian
[34] = tested on: OVCAR-4 ovarian
[35] = tested on: OVCAR-5 ovarian
[36] = tested on: OVCAR-8 ovarian
[37] = tested on: PC-3 prostate
[38] = tested on: RPMI-8226 leukemia
[39] = tested on: RXF 393 renal
[40] = tested on: SF-268 CNS
[41] = tested on: SF-295 CNS
[42] = tested on: SF-539 CNS
[43] = tested on: SK-MEL-2 melanoma
[44] = tested on: SK-MEL-28 melanoma
[45] = tested on: SK-MEL-5 melanoma
[46] = tested on: SK-OV-3 ovarian
[47] = tested on: SN12C renal
[48] = tested on: SNB-19 CNS
[49] = tested on: SNB-75 CNS
[50] = tested on: SR leukemia
[51] = tested on: SW-620 colon
[52] = tested on: T-47D breast
[53] = tested on: TK-10 renal
[54] = tested on: U251 CNS
[55] = tested on: UACC-257 melanoma
[56] = tested on: UACC-62 melanoma
[57] = tested on: UO-31 renal

Oc1[nH]c2ccccc2c1/C=c1/ccc2c(c1)N=C(c1ccc(C(F)(F)F)cc1)N=2
GI50 [1]: 1480 nM | TGI [1]: 3.56 µM | GI50 [2]: 1540 nM | TGI [2]: 11.2 µM | GI50 [3]: 4.81 µM | TGI [3]: 17.8 µM | GI50 [4]: 3.24 µM | TGI [4]: 17.4 µM | GI50 [5]: 2040 nM | TGI [5]: 9.25 µM | GI50 [6]: 3.11 µM | TGI [6]: 13.6 µM | GI50 [7]: 1650 nM | TGI [7]: 5.05 µM | GI50 [8]: 9.89 µM | TGI [8]: 22.1 µM | GI50 [9]: 4.11 µM | TGI [9]: 16 µM | GI50 [10]: 4.34 µM | TGI [10]: 16.9 µM | GI50 [11]: 3.77 µM | TGI [11]: 16.2 µM | GI50 [12]: 1370 nM | TGI [12]: 12.3 µM | GI50 [13]: 4.09 µM | TGI [13]: 20.3 µM | GI50 [14]: 2260 nM | TGI [14]: 5.27 µM | GI50 [15]: 4.94 µM | TGI [15]: 15.6 µM | GI50 [16]: 3.09 µM | TGI [16]: 12.7 µM | GI50 [17]: 1610 nM | TGI [17]: 11.3 µM | GI50 [18]: 3.01 µM | TGI [18]: 13.3 µM | GI50 [19]: 1410 nM | TGI [19]: 3.46 µM | GI50 [20]: 1090 nM | TGI [20]: 12.7 µM | GI50 [21]: 1820 nM | TGI [21]: 5.37 µM | GI50 [22]: 2050 nM | TGI [22]: 9.04 µM | GI50 [23]: 2900 nM | TGI [23]: 9.23 µM | GI50 [24]: 2980 nM | TGI [24]: 12.9 µM | GI50 [25]: 2040 nM | TGI [25]: 14 µM | GI50 [26]: 1170 nM | TGI [26]: 5.69 µM | GI50 [27]: 1670 nM | TGI [27]: 3.94 µM | GI50 [28]: 14.5 µM | TGI [28]: 30.5 µM | GI50 [29]: 3.39 µM | TGI [29]: 15.7 µM | GI50 [30]: 2130 nM | TGI [30]: 6.12 µM | GI50 [31]: 1970 nM | TGI [31]: 13.5 µM | GI50 [32]: 3.98 µM | TGI [32]: 13.1 µM | GI50 [33]: 740 nM | TGI [33]: 3.89 µM | GI50 [34]: 3.94 µM | TGI [34]: 15.8 µM | GI50 [35]: 10.1 µM | TGI [35]: 22 µM | GI50 [36]: 5.94 µM | TGI [36]: 20.3 µM | GI50 [37]: 1540 nM | TGI [37]: 3.75 µM | GI50 [38]: 1340 nM | TGI [38]: 4 µM | GI50 [39]: 2210 nM | TGI [39]: 4.32 µM | GI50 [40]: 3.46 µM | TGI [40]: 11.9 µM | GI50 [41]: 2700 nM | TGI [41]: 12.2 µM | GI50 [42]: 7.45 µM | TGI [42]: 21.1 µM | GI50 [43]: 5.08 µM | TGI [43]: 15.3 µM | GI50 [44]: 3.11 µM | TGI [44]: 16.2 µM | GI50 [45]: 8.72 µM | TGI [45]: 20.9 µM | GI50 [46]: 12.1 µM | TGI [46]: 25 µM | GI50 [47]: 6.91 µM | TGI [47]: 20.6 µM | GI50 [48]: 5.38 µM | TGI [48]: 21.1 µM | GI50 [49]: 2790 nM | TGI [49]: 12.9 µM | GI50 [50]: 1700 nM | TGI [50]: 4.54 µM | GI50 [51]: 1920 nM | TGI [51]: 5.55 µM | GI50 [52]: 3.58 µM | TGI [52]: 14.4 µM | GI50 [53]: 10.4 µM | TGI [53]: 22.2 µM | GI50 [54]: 2830 nM | TGI [54]: 12.8 µM | GI50 [55]: 7.4 µM | TGI [55]: 21.5 µM | GI50 [56]: 2620 nM | TGI [56]: 15.8 µM | GI50 [57]: 2480 nM | TGI [57]: 13 µM
